Legend:
[1] = tested on: red blood cells (RBCs); test: Localisation of biotin to RBC surface by conjugation with avidin ALEXAFLUOR (fluorescence microscopy); format: cell-based; design: key to fluorescent signal intensity grade: 1 (low); 2 (moderate); 3 (bright); 4 (very bright)
Method: (§1) The use of aqueous solutions of the construct designated Biotin-S3-S4-S2-chol (III) and the construct designated Biotin-S3-S4-S5-DOPE (IV) in the localisation of biotin (F) to cell surfaces was also compared. Solutions of the two constructs were prepared at substantially equimolar concentrations. The use of the solutions was assessed across a concentration range from 0 to 500 μM (0.5 mM). A 0.5 mM solution of the construct designated Biotin-S3-S4-S2-chol (III) was prepared by dissolving 0.4 mg of the construct in 514 μL of PBS. […] A 0.5 mM stock solution of the construct designated Biotin-S3-S4-S5-DOPE (IV) was prepared by dissolving 2 mg of the construct in 1942 μL of phosphate buffered saline (PBS). Each 0.5 mM solution was warmed to 37° C. for 10 minutes, vortexed and sonicated for 30 seconds to ensure complete dissolution of the construct in the aqueous medium. A dilution series was prepared for each construct to provide a total volume of 100 μL at each of the following concentrations: […]. Equal volumes (40 μL) of packed, washed red blood cells (RBCs) and solutions of constructs at different concentrations were mixed in a glass kimble tube. The tubes were incubated at 37° C. for 20 minutes in a water bath with periodic (3 x) agitation. The incubated cells were washed 3× with PBS before being resuspended in a cell preservative (CELPRESOL™) for storage at 4° C. overnight.
(§2) Two equal volumes were taken from each tube and centrifuged (300×g for 2 minutes) to provide two equivalent packed cells volumes for further evaluation. One of each pair of equivalent packed cell volumes was evaluated for localisation of the biofunctional moiety biotin to the surface of the RBCs by conjugation with avidin ALEXAFLUOR™. One of each pair of the equivalent packed cell volumes was evaluated for localisation of the biofunctional moiety biotin to the surface of the RBCs by conjugation to avidinylated beads (DYNABEADS™ M-280).
Conjugation with avidin ALEXAFLUOR™ was evaluated as described in the publication of Oliver et al (2011). An aliquot containing 0.02 mg avidin ALEXAFLUOR™ was mixed with a volume ([…]) of PBS containing BSA to provide a 0.1 mg/mL solution. Equal volumes 20 μL of packed RBCs and the solution of avidin ALEXAFLUOR™ were mixed and incubated at 37° C. for 30 minutes. The cells were then washed 3× with PBS before placing a drop (10 μL) on a glass microscope slide for fluorescent microscopy (WIB filter at 400× magnification). Cells were graded for fluorescence intensity over two micrograph fields of view. Grades determined via the eye piece were correlated with the corresponding photomicrographs (1.9 sec exposure). Grades were assigned according to the following scale: 1 (low), 2 (moderate), 3 (bright) and 4 (very bright). The morphology of the cells was also recorded (“normal” or “poiked”).

[2] = Dissolution of construct in PBS; format: physicochemical; details: 0.5 mM: 0.4 mg in 514 μL of PBS
Method: as §1, with “The incubated cells were washed 3× with PBS before being resuspended in a cell preservative (CELPRESOL™) for storage at 4° C. overnight.” left out

[3] = tested on: red blood cells (RBCs); test: Localisation of biotin to RBC surface by attachment of avidinylated beads (DYNABEADS M-280); format: cell-based
Method: as §1, with “The tubes were incubated at 37° C. for 20 minutes in a water bath with periodic (3 x) agitation. The incubated cells were washed 3× with PBS before being resuspended in a cell preservative (CELPRESOL™) for storage at 4° C. overnight.” left out
as §2
Conjugation with avidinylated beads (DYNABEADS™ M-280) was performed. […] The attachment of beads to cells was scored at 400× and 800× magnification on a compound microscope. An estimate of the number of beads and the presence of cell clusters was recorded for each group and compared with a negative control.

For `CC(C)CCC[C@@H](C)[C@H]1CC[C@H]2[C@@H]3CC=C4C[C@@H](OC(=O)NCCCCC(=O)NCC(=O)NCC(=O)N(CC(=O)[O-])CC(=O)NCC(=O)NCC(=O)N(CC(=O)[O-])CC(=O)NCCNC(=O)CN(CC(=O)[O-])C(=O)CNC(=O)CNC(=O)CN(CC(=O)[O-])C(=O)CNC(=O)CNC(=O)CCCC[C@@H]5SC[C@@H]6NC(=O)N[C@@H]65)CC[C@]4(C)[C@H]3CC[C@]12C.[Na+].[Na+].[Na+].[Na+]` [Biotin-S3-S4-S2-chol (III)], the “staining at higher concentrations” value ([1]; 100 and 500 μM) was “poor staining”, the “homogeneity of modification of cell surface” value ([1]; compared with Biotin-S3-S4-S5-DOPE (IV)) was “more homogenous modification over the entire cell surface and lesser inter-cell variation” and the “fluorescent signal intensity grade” value ([1]; constructs at concentrations of 10 and 25 μM, avidin ALEXAFLUOR) was 2. The “fluorescent signal intensity relative to cells prepared using Biotin-S3-S4-S5-DOPE (IV)” value ([1]; lower concentration ranges (5 to 75 μM)) was “moderately lower”, the “dissolution in PBS” value [2] was “readily dissolved to provide a clear solution” and the “attachment of avidinylated beads, comparison of the two constructs” value [3] was “comparable results”. For the same compound, the “number of beads attached to each RBC and clustering of RBCs into groups, relative to the other construct” value ([3]; 25 μM construct) was “slightly greater”.

From patent US20140004499A1, “BIOSURFACE ENGINEERING” (priority 2011, published 2014)
